Test results reported in patent US12116348B2, “Substituted benzimidazole compound and composition comprising same” (Shenzhen TargetRx, Inc., priority 2017, dated 2024).
pIC50: −log10 of the molar value. Values belong to the compound of their own block, whether it stands above or below them.

Legend:
HT-29 cells = experiment: Cytotoxicity experiment: viability of HT-29 cells (CellTiter-Glo); assay type: cell-based; conditions: Homo sapiens, 72 hours, CTG analysis, read-out: HT-29 cell IC50
Protocol: (1) Cytotoxicity Experiment
The inhibitory effects of the example compounds on the viability of HT-29 cells were tested.
Cell line: HT-29 (cell type: adherent; number of cells/well: 3000; medium: RPMI-1640+10% FBS) was cultured under the condition of 37° C., 5% CO2, and 95% humidity.
Materials and Reagents: Fetal bovine serum (FBS, GBICO, Cat. No. 10099-141), CellTiter-Glo® Luminescent Cell Viability Assay (Promega, Cat. No. G7572), 96-well plate with transparent flat bottom and black walls (Corning®, Cat. No. 3603).
Instruments: SpectraMax multi-label microplate reader, MD, 2104-0010A; CO2 incubator, Thermo Scientific, Model 3100 Series; biosafety cabinet, Thermo Scientific, Model 1300 Series A2; inverted microscope, Olympus, CKX41SF; refrigerator, SIEMENS, KK25E76TI.
• 1) Cell culture and inoculation: i) cells in the logarithmic growth phase were harvested and counted using a […]. The cell viability was determined by trypan blue exclusion method to ensure that the cell viability was greater than 90%; ii) the cell concentration was adjusted; and 90 μL of the cell suspension was added into a 96-well plate, respectively; iii) the cells in the 96-well plate were cultured overnight under the condition of 37° C., 5% CO2 and 95% humidity. • 2) Drug dilution and dosing: i) the 10-fold drug solutions were prepared with a maximum concentration of 100 μM, which was diluted using a 3.16-fold serial gradient dilution, resulting in 9 concentrations. 10 μL of the drug solutions was added to each well of the 96-well plate inoculated with cells; and each drug concentration was tested in triplicate; ii) the cells in the 96-well plate added with drugs were cultured under the condition of 37° C., 5% CO2 and 95% humidity for 72 hours, and then CTG analysis was carried out. • 3) Plate reading at the end point: i) CTG reagent was thawed and the cell plate was equilibrated to room temperature for 30 minutes; ii) equal volume of the CTG solution was added to each well; iii) the cell plate was shaked on the orbital shaker for 5 minutes to lyse the cells; iv) the cell plate was placed at room temperature for 20 minutes to stabilize the cold light signal; v) the cold light values were read.
Data processing: GraphPad Prism 5.0 software was used to analyze the data, and the data was fitted using the non-linear S-curve regression to get a dose-effect curve, and IC50 values were calculated accordingly. Cell viability (%)=(Lum of test drug−Lum of medium control)/(Lum of cell control−Lum of medium control)×100%.

[1] = Metabolic stability evaluation in mouse liver microsomes; assay type: in vitro ADME; conditions: SD, pH 7.4, mouse liver microsomes 0.5 mg/mL, compound 1 μM; for microsomal CLint at 1 μM: liver intrinsic clearance; for half-life at 1 μM: NADPH, 37° C.
Protocol: (2) Metabolic Stability Evaluation
Microsome assay: mouse liver microsomes: 0.5 mg/mL, Xenotech; coenzyme (NADPH/NADH): 1 mM, Sigma Life Science; magnesium chloride: 5 mM, 100 mM phosphate buffer (pH 7.4).
Preparation of stock solutions: Powder of the example compounds were accurately weighed and dissolved in DMSO to 5 mM respectively.
Preparation of phosphate buffer (100 mM, pH7.4): A pre-prepared 0.5M potassium dihydrogen phosphate (150 mL) was mixed with 0.5M dibasic potassium phosphate (700 mL). The pH of the mixture was adjusted to 7.4 with 0.5M dibasic potassium phosphate solution. The mixture was diluted 5-fold with ultrapure water before use, and magnesium chloride was added to obtain a phosphate buffer (100 mM) containing 100 mM potassium phosphate, 3.3 mM magnesium chloride, pH 7.4.
A NADPH regeneration system solution (containing 6.5 mM NADP, 16.5 mM G-6-P, 3 U/mL G-6-P D, 3.3 mM magnesium chloride) was prepared and placed on wet ice prior to use.
Preparation of stop solution: an acetonitrile solution containing 50 ng/mL propranolol hydrochloride and 200 ng/mL tolbutamide (internal standard). 25057.5 μL of phosphate buffer (pH 7.4) was taken into a 50 mL centrifuge tube, to which 812.5 μL of SD mouse liver microsomes were added, and mixed to obtain a liver microsome dilution with a protein concentration of 0.625 mg/mL.
Incubation of the samples: The stock solutions of the respective compounds were respectively diluted to 0.25 mM with an aqueous solution containing 70% acetonitrile, and used as a working solution, ready for use. 398 μL of the dilutions of mouse liver microsomes were added to 96-well incubation plates (N=2), respectively, and 2 μL of 0.25 mM working solution was added respectively and mixed.
Metabolic stability assay: 300 μL of pre-chilled stop solution was added to each well of 96-well deep well plates and placed on ice as stop plates. The 96-well incubation plates and NADPH regeneration system were placed in a 37° C. water bath, shaken at 100 rpm and pre-incubated for 5 min. 80 μL of incubation solution was taken out from each well of the incubation plates and added to the stop plates, mixed, and replenished with 20 μL of NADPH regeneration system solution as a 0-min sample. 80 μL of NADPH regeneration system solution was added to each well of the incubation plates to start the reaction and start counting. […] Separately, 100 μL of the reaction solutions was taken at 10, 30, and 90 min after the reaction, respectively, added to stop plates, and vortexed for 3 minutes to terminate the reaction. The stop plates were centrifuged at 5000×g at 4° C. for 10 min. 100 μL of the supernatant was added to a 96-well plate to which 100 μL of distilled water was previously added, mixed, and analyzed by LC-MS/MS.
Data analysis: The peak areas of the corresponding compounds and internal standard were detected by LC-MS/MS system, and the ratio of the peak area of the compounds to the internal standard was calculated.

SMILES: [2H]C([2H])([2H])n1cnc2c(F)c(Nc3ccc(Br)cc3Cl)c(C(=O)NOCCO)cc21 [A-1, 6-(4-bromo-2-chloro-phenylamino)-7-fluoro-3-(methyl-d3)-3H-benzimidazole-5-carboxylic acid (2-hydroxyethoxy)-amide]
pIC50 (HT-29 cells): > 9.30 | microsomal CLint at 1 μM [1]: 19.7 µL/min/mg | half-life at 1 μM [1]: 1.17 h

SMILES: [2H]C([2H])(O)CONC(=O)c1cc2c(ncn2C)c(F)c1Nc1ccc(Br)cc1Cl [A-4, 6-(4-bromo-2-chlorophenylamino)-7-fluoro-3-methyl-3H-benzimidazole-5-carboxylic acid (2-hydroxyethoxy-2,2-d2)amide]
pIC50 (HT-29 cells): > 9.30 | microsomal CLint at 1 μM [1]: 24.6 µL/min/mg | half-life at 1 μM [1]: 0.94 h

SMILES: [2H]C([2H])(O)C([2H])([2H])ONC(=O)c1cc2c(ncn2C)c(F)c1Nc1ccc(Br)cc1Cl [A-6, 6-(4-bromo-2-chlorophenylamino)-7-fluoro-3-methyl-3H-benzimidazole-5-carboxylic acid (2-hydroxyethoxy-1,1,2,2-d4)amide]
microsomal CLint at 1 μM [1]: 19.8 µL/min/mg | half-life at 1 μM [1]: 1.17 h

More lines, main results first:

microsomal CLint at 1 μM [1]: 20.9 µL/min/mg | half-life at 1 μM [1]: 1.11 h
SMILES: [2H]C([2H])(O)CONC(=O)c1cc2c(ncn2C([2H])([2H])[2H])c(F)c1Nc1ccc(Br)cc1Cl [A-5, 6-(4-bromo-2-chlorophenylamino)-7-fluoro-3-(methyl-d3)-3H-benzimidazole-5-carboxylic acid (2-hydroxyethoxy-2,2-d2)amide]
pIC50 (HT-29 cells): > 9.30

microsomal CLint at 1 μM [1]: 23.6 µL/min/mg | half-life at 1 μM [1]: 0.978 h
SMILES: Cn1cnc2c(F)c(Nc3ccc(Br)cc3Cl)c(C(=O)NOCCO)cc21 [Selumetinib, 6-(4-bromo-2-chloro-phenylamino)-7-fluoro-3-methyl-3H-benzimidazole-5-carboxylic acid (2-hydroxy-ethoxy)-amide, reference compound]
pIC50 (HT-29 cells): > 9.30
